# Patent US12258336B2, “Preparation of seimicarbazide-sensitive amine oxidase inhibitor and use thereof” (SHANGHAI ENNOVABIO PHARMACEUTICALS CO., LTD., priority 2018, dated 2025)
# pIC50: −log10 of the molar value.
# Molecular target: T1, Recombinant human SSAO protein (Homo sapiens, UniProt Q16853)
# T1 construct: Eli Lilly (provided, not a catalogue product)
# T1 sequence (Q16853 1-763): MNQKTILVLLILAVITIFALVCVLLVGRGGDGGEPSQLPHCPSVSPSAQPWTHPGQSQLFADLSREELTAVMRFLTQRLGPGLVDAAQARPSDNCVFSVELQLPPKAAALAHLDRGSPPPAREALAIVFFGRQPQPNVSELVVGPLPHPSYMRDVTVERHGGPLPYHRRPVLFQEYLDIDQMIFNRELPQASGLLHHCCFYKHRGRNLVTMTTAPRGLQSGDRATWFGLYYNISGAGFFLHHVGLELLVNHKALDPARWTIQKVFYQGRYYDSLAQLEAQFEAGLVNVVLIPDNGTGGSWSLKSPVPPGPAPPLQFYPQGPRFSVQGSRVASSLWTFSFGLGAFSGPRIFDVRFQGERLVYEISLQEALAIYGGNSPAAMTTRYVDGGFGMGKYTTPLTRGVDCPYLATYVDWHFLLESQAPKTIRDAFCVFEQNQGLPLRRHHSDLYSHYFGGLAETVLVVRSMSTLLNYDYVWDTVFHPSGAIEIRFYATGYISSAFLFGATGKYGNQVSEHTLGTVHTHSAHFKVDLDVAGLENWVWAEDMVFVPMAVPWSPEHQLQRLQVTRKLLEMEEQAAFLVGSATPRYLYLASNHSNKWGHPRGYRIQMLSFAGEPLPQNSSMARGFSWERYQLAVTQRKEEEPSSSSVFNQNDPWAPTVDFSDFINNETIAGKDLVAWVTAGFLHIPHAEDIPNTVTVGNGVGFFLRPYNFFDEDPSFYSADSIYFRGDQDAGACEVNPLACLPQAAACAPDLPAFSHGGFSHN
# Test: In vitro inhibitory activity on SSAO/VAP-1 (MAO-Glo assay), human
# Type: biochemical
# Experimental: This assay was used to evaluate the in vitro inhibitory activity of the compounds on SSAO/VAP-1 of different species. Recombinant human SSAO protein, mouse SSAO protein or rat SSAO protein (provided by Eli Lilly) were used. The enzyme activity detection kit, MAO-Glo Assay kit (V1402) was purchased from Promega. Enzyme reaction buffer (50 mM HEPES, 120 mM NaCl, 5 mM KCl, 2 mM CaCl2, 1.4 mM MgCl2, 0.001% Tween-20, pH7.4) was prepared. The test compound was dissolved in DMSO and diluted by 3-fold concentration in gradient. The final concentration of test compound in a 10 μL reaction system was 1 μM to 0.05 nM when SSAO was detected. The content of DMSO in the detection reaction was 1%. After the solution of test compound in DMSO was diluted in the enzyme reaction buffer at a volume ratio of 1:25, 2.5 μL of which was added to each well of detection plate, two replicates for each concentration. 5 μL of SSAO protein diluted in the enzyme reaction buffer was added to each well, the final concentration of which was 10 nM to 80 nM in 10 μL reaction system. The mixture was incubated at room temperature for 10 minutes. 2.5 μL of the reaction substrate diluted in the enzyme reaction buffer was added to each well, the final concentration of which was 10 μM in 10 μL reaction system. After the mixture was reacted at room temperature for 120 minutes, 10 μL of detection reagent was added to each well. The reaction solution was incubated for 20 minutes at room temperature, and the plate was read with Synergy Neo 2 for detection. The value was converted into inhibition rate by the following formula: Inhibition rate=(Signalpositive−Signaltest)/(Signalpositive−Signalnegative)×100%
# Signalpositive was positive control without test compound. Signalnegative was negative control without test compound and SSAO enzyme, and Signaltest was detection value of each compound at different concentrations. IC50 value was calculated by using 4 parameter curve fitting.
row,SMILES,pIC50
1,COC1CC2CCC(C1)N2c1ncc(OC/C(=C/F)CN)cn1 (centres unmarked) [Example 12],> 8.00
2,NC/C(=C\F)COc1cnc(N2CCC3(CC2)COC3)nc1 [Example 3],> 8.00
3,N#Cc1cc(OC/C(=C/F)CN)cnc1N1CCN(C2COC2)CC1 [Example 7],< 7.30
4,NC/C(=C\F)COc1cnc(N2CCN(c3cnc(N4CCN(C5COC5)CC4)nc3)CC2)nc1 [Example 9],> 8.00
5,NC/C(=C\F)COc1cnc(N2CC3CCC(C2)N3C2COC2)nc1 [Example 6],7.30 to 8.00

# More lines, now with the values ahead:
row,pIC50,SMILES
1,> 8.00,"NC/C(=C\F)COc1cnc(N2CCN(C3COC3)CC2)nc1 [Example 4, (E)-3-fluoro-2-(((2-(4-(oxbutan-3-yl)piperazin-1-yl)pyrimidin-5-yl)oxo)methyl)prop-2-en-1-amine]"
2,> 8.00,COC1CC2CC1CN2c1ncc(OC/C(=C/F)CN)cn1 (centres unmarked) [Example 2]
3,7.30 to 8.00,CC1(C)CN(c2ncc(OC/C(=C/F)CN)cn2)CCN1C1COC1 [Example 10]
4,> 8.00,NC/C(=C/F)COc1cnc(N2CCN(C3COC3)CC2)nc1 [Example 8]
5,7.30 to 8.00,CC1(C)CN(C2COC2)CCN1c1ncc(OC/C(=C/F)CN)cn1 [Example 5]
6,> 8.00,"CC1CN(c2ncc(OC/C(=C/F)CN)cn2)CC(C)N1C1COC1 (centres unmarked) [Example 1, (E)-2-(((2-(3,5-dimethyl-4-(oxbutan-3-yl)piperazin-1-yl)pyrimidin-5-yl)oxo)methyl)-3-fluoroprop-2-en-1-amine]"
